Assay: Degradation of glycosaminoglycanes by reactive oxygen species (FIG. 2)
Assay type: biochemical
Conditions: free ferrous ions and hydrogen peroxide; pH value 7.2, 37 degrees Celsius

O=C1O[C@H]([C@@H](O)CO)C(O)=C1O [vitamin C]
degradation of glycosaminoglycanes by reactive oxygen species: enhances the degradation of glycosaminoglycanes

Source: US20060280820A1, “Use of an extract of Aloysia/Verbena/Lippia triphylla/citriodora for the treatment of chronic and/or inflammatory diseases” (priority 2003, published 2006)
